By IC50 is commonly meant the midpoint of a concentration-inhibition curve. A low value points to greater potency. The term solubility denotes the dissolved amount per volume that the medium holds. Usually logD stands for lipophilicity at a set pH, counting ionised and neutral species. High values mean a more lipophilic compound, low ones a more hydrophilic compound.

Data set [1] has as its target estrogen receptor (ERα) in CAMA-1 cells (Homo sapiens (Human), UniProt P03372). Briefly: Western blotting assay, CAMA-1 cells. Format: cell-based. The note with it: compound 100 nM, 48 h, normalised to 100 nM fulvestrant (100%). For orientation: In western blotting, separated proteins are transferred to a membrane and probed.
The target in data set [2] is T1, Estrogen Receptor (ERα) in MCF-7 cells (Homo sapiens (Human), UniProt P03372). Briefly: Western blotting assay, MCF-7 cells. The note with it: compound 100 nM, 48 h, normalised to 100 nM fulvestrant (100%). Format: cell-based.
T1 sequence (P03372 whole entry): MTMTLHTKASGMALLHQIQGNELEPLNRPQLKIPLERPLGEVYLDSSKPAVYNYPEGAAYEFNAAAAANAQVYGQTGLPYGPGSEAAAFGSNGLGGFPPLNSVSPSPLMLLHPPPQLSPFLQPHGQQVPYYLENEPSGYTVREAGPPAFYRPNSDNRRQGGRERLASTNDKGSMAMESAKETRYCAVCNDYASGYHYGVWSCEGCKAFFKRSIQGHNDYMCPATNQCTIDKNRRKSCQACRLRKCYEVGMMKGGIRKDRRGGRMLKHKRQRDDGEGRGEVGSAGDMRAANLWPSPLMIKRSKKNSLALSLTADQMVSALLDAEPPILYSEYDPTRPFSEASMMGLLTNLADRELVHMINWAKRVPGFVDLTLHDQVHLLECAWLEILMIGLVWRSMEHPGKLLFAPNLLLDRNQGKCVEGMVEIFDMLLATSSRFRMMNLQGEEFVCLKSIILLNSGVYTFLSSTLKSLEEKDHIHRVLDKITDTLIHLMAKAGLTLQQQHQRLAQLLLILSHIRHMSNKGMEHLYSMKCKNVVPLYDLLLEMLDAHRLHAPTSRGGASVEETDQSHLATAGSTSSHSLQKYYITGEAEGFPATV
The nature of data set [3]: Human plasma protein binding (equilibrium dialysis). Format: in vitro ADME. The note with it: dialysis 18 hours.
Data set [4] deals with T1, Estrogen Receptor (ERα) in MCF-7 cells. Briefly: MCF-7 ER down-regulation assay (immuno-fluorescence). Format: cell-based. Conditions: for IC50: 18-22 hours incubation; for % downregulation: shown in brackets where not >90%.
Data set [5] is described as follows: Thermodynamic solubility (shake flask). The format is physicochemical. The note with it: aqueous phosphate buffer, 25 °C, pH 7.4, aqueous buffer, thermodynamic from solid, aqueous phosphate buffer pH 7.4, 24 hours.
The nature of a further data set: physchem. Conditions: 1-octanol/aqueous buffer, pH 7.4.

Values after ≈ are worked out from the molar mass of the structure shown. Where only a bound is given, the exact number is not on record here.

Sequence of estrogen receptor (ERα) in CAMA-1 cells (P03372 whole entry): as above

`C[C@@H]1Cc2c([nH]c3ccccc23)[C@@H](c2c(F)cc(NCCNCCCF)cc2F)N1CC(F)F` [Example 54, N1-(4-((1R,3R)-2-(2,2-difluoroethyl)-3-methyl-2,3,4,9-tetrahydro-1H-pyrido[3,4-b]indol-1-yl)-3,5-difluorophenyl)-N2-(3-fluoropropyl)ethane-1,2-diamine]: the “CAMA1 Western % ER deg vs Fv” value in data set [1] worked out at 92%. Besides, in data set [2], the “MCF7 Western % ER deg vs Fv” value is listed as 87%. In addition, the “Human plasma protein binding (% free)” value in data set [3] came out at 1.3 % free. This compound showed an IC50 in data set [4] of 0.13 nM. The compound also came in with a solubility at 24 h in data set [5] of 242 µM (≈ 116 µg/mL).
`COc1cc(OCCNCCCF)ncc1[C@@H]1c2[nH]c3ccccc3c2C[C@@H](C)N1CC(F)(F)F` [Example 41, 3-Fluoro-N-(2-((4-methoxy-5-((1R,3R)-3-methyl-2-(2,2,2-trifluoroethyl)-2,3,4,9-tetrahydro-1H-pyrido[3,4-b]indol-1-yl)pyridin-2-yl)oxy)ethyl)propan-1-amine] yielded a logD in the data set “physchem” of 3.2. The “CAMA1 Western % ER deg vs Fv” value in data set [1] came out at 89%. For the same compound, the “MCF7 Western % ER deg vs Fv” value in data set [2] is reported as 74%. Also, the “Human plasma protein binding (% free)” value in data set [3] is 2.4 % free. Besides, it took 0.14 nM to reach half-maximal inhibition in data set [4] (IC50). The compound also registered a solubility at 24 h in data set [5] of 389 µM (≈ 192 µg/mL).
In the data set “physchem”, `C[C@@H]1Cc2c([nH]c3ccccc23)[C@@H](c2ccc(OCCNCCCF)cc2F)N1CC(F)F` [Example 48, N-(2-(4-((1R,3R)-2-(2,2-difluoroethyl)-3-methyl-2,3,4,9-tetrahydro-1H-pyrido[3,4-b]indol-1-yl)-3-fluorophenoxy)ethyl)-3-fluoropropan-1-amine] gave a pH-dependent lipophilicity (logD) of 3.4. Moreover, the “CAMA1 Western % ER deg vs Fv” value in data set [1] is 65%. Moreover, the “MCF7 Western % ER deg vs Fv” value in data set [2] worked out at 58%. The half-inhibitory concentration (IC50) in data set [4] amounted to 0.26 nM. The compound also gave a solubility at 24 h in data set [5] of 94 µM (≈ 43.6 µg/mL).
In “physchem”, `COc1cc(NCCNCCCF)ccc1[C@@H]1c2[nH]c3ccccc3c2C[C@@H](C)N1CC1(F)COC1` [Example 47, N1-(4-((1R,3R)-2-((3-fluorooxetan-3-yl)methyl)-3-methyl-2,3,4,9-tetrahydro-1H-pyrido[3,4-b]indol-1-yl)-3-methoxyphenyl)-N2-(3-fluoropropyl)ethane-1,2-diamine] displayed a pH-dependent lipophilicity (logD) of 2.5. The “CAMA1 Western % ER deg vs Fv” value in data set [1] was 81%. The “MCF7 Western % ER deg vs Fv” value in data set [2] was determined as 90%. For the same compound, the “Human plasma protein binding (% free)” value in data set [3] amounted to 5.0 % free. The IC50 in data set [4] stood at 0.24 nM. In addition, the solubility at 24 h in data set [5] came to 840 µM (≈ 419 µg/mL).
Regarding `C[C@@H]1Cc2c([nH]c3ccccc23)[C@@H](c2c(F)cc(NCCNCCCF)cc2F)N1CC1(F)CC1` [Example 9, N^1-(3,5-difluoro-4-((1R,3R)-2-((1-fluorocyclopropyl)methyl)-3-methyl-2,3,4,9-tetrahydro-1H-pyrido[3,4-b]indol-1-yl)phenyl)-N^2-(3-fluoropropyl)ethane-1,2-diamine], in data set [1], the “CAMA1 Western % ER deg vs Fv” value is 80%. In addition, the “MCF7 Western % ER deg vs Fv” value in data set [2] turned out to be 82%. The compound also gave a half-inhibitory concentration (IC50) in data set [4] of 0.22 nM.
As for `COc1cc(OCCNCCCF)ccc1[C@@H]1c2[nH]c3ccccc3c2C[C@@H](C)N1CC1(F)COC1` [Example 8, 3-fluoro-N-(2-(4-((1R,3R)-2-((3-fluorooxetan-3-yl)methyl)-3-methyl-2,3,4,9-tetrahydro-1H-pyrido[3,4-b]indol-1-yl)-3-methoxyphenoxy)ethyl)propan-1-amine], the “CAMA1 Western % ER deg vs Fv” value in data set [1] was found to be 38%. In addition, the “MCF7 Western % ER deg vs Fv” value in data set [2] turned out to be 77%.
As for `COc1cc(OCCNCCCF)ccc1[C@@H]1c2[nH]c3ccccc3c2C[C@@H](C)N1CC1(F)CC1` [Example 11, 3-fluoro-N-(2-(4-((1R,3R)-2-((1-fluorocyclopropyl)methyl)-3-methyl-2,3,4,9-tetrahydro-1H-pyrido[3,4-b]indol-1-yl)-3-methoxyphenoxy)ethyl)propan-1-amine], the “CAMA1 Western % ER deg vs Fv” value in data set [1] is 54%. The “MCF7 Western % ER deg vs Fv” value in data set [2] was 81%. Moreover, in data set [4], the half-maximal inhibitory concentration (IC50) was 0.46 nM.
In the data set “physchem”, `C[C@@H]1Cc2c([nH]c3ccccc23)[C@@H](c2c(F)cc(OCC(CO)NCCCF)cc2F)N1CC(C)(C)F` (stereo partly drawn) [Example 20, 3-(3,5-difluoro-4-((1R,3R)-2-(2-fluoro-2-methylpropyl)-3-methyl-2,3,4,9-tetrahydro-1H-pyrido[3,4-b]indol-1-yl)phenoxy)-2-((3-fluoropropyl)amino)propan-1-ol] displayed a pH-dependent lipophilicity (logD) greater than 3.9. For the same compound, in data set [3], the “Human plasma protein binding (% free)” value was less than 0.30 % free. Besides, in data set [4], the IC50 stood at 0.26 nM. The solubility at 24 h in data set [5] is 18 µM (≈ 9.39 µg/mL).
For the compound `COc1cc(NCCNCCCF)ccc1[C@@H]1c2[nH]c3ccccc3c2C[C@@H](C)N1CC(F)F` [Example 61, N1-(4-((1R,3R)-2-(2,2-difluoroethyl)-3-methyl-2,3,4,9-tetrahydro-1H-pyrido[3,4-b]indol-1-yl)-3-methoxyphenyl)-N2-(3-fluoropropyl)ethane-1,2-diamine], the logD in “physchem” turned out to be 3.4. Besides, the “Human plasma protein binding (% free)” value in data set [3] came to 1.3 % free. The IC50 in data set [4] was determined as 0.24 nM. The solubility at 24 h in data set [5] was 24 µM (≈ 11.4 µg/mL).
`C[C@@H]1Cc2c([nH]c3ccccc23)[C@@H](c2ccc(OCCNCCCF)cc2)N1CC(C)(F)F` [Example 57, N-(2-(4-((1R,3R)-2-(2,2-difluoropropyl)-3-methyl-2,3,4,9-tetrahydro-1H-pyrido[3,4-b]indol-1-yl)phenoxy)ethyl)-3-fluoropropan-1-amine] came in with a log distribution coefficient (logD) in the data set “physchem” of 4. Moreover, the “Human plasma protein binding (% free)” value in data set [3] is 0.41 % free. In data set [4], this compound gave an IC50 of 0.27 nM. This compound also returned a solubility at 24 h in data set [5] of 35 µM (≈ 16.1 µg/mL).
For the compound `C[C@@H]1Cc2c([nH]c3ccccc23)[C@@H](c2ccc(OCCNCCCF)nc2)N1CC1(F)COC1` [Example 34, 3-fluoro-N-(2-((5-((1R,3R)-2-((3-fluorooxetan-3-yl)methyl)-3-methyl-2,3,4,9-tetrahydro-1H-pyrido[3,4-b]indol-1-yl)pyridin-2-yl)oxy)ethyl)propan-1-amine], the logD in the data set “physchem” was found to be 2.5. The “Human plasma protein binding (% free)” value in data set [3] was 11 % free. In data set [4], this compound registered a half-inhibitory concentration (IC50) of 6.2 nM. For the same compound, the solubility at 24 h in data set [5] turned out to be 787 µM (≈ 370 µg/mL).
As to `C[C@@H]1Cc2c([nH]c3ccccc23)[C@@H](c2c(F)cc(N(C)CCNCCCF)cc2F)N1CC(F)F` [Example 49, N1-(4-((1R,3R)-2-(2,2-difluoroethyl)-3-methyl-2,3,4,9-tetrahydro-1H-pyrido[3,4-b]indol-1-yl)-3,5-difluorophenyl)-N2-(3-fluoropropyl)-N1-methylethane-1,2-diamine], the “CAMA1 Western % ER deg vs Fv” value in data set [1] was 95%. Further, in data set [2], the “MCF7 Western % ER deg vs Fv” value came to 100%. In addition, the “Human plasma protein binding (% free)” value in data set [3] stood at 0.40 % free. This compound also registered an IC50 in data set [4] of 0.25 nM. In data set [5], the solubility at 24 h was found to be 70 µM (≈ 34.6 µg/mL).
With `C[C@@H]1Cc2c([nH]c3ccccc23)[C@@H](c2c(F)cc(OCCNCCCF)cc2F)N1CC(C)(F)CO` (single isomer, unassigned) [Example 17], in “physchem”, the log distribution coefficient (logD) worked out at 2.6. The “Human plasma protein binding (% free)” value in data set [3] is listed as 3.9 % free. In data set [4], the IC50 was 0.086 nM and the “% downregulation” value is reported as “(85%)”. Further, in data set [5], the solubility at 24 h was found to be 629 µM (≈ 319 µg/mL).
As to `C[C@@H]1Cc2c([nH]c3ccccc23)[C@@H](c2ccc(OCCNCCCF)cc2)N1CC(F)F` [Example 56, N-(2-(4-((1R,3R)-2-(2,2-difluoroethyl)-3-methyl-2,3,4,9-tetrahydro-1H-pyrido[3,4-b]indol-1-yl)phenoxy)ethyl)-3-fluoropropan-1-amine], the logD in “physchem” was determined as 3.3. Moreover, the “CAMA1 Western % ER deg vs Fv” value in data set [1] amounted to 66%. Moreover, in data set [2], the “MCF7 Western % ER deg vs Fv” value is on record as 74%. In data set [4], 0.4 nM corresponded to half-maximal inhibition (IC50). For the same compound, the solubility at 24 h in data set [5] is 184 µM (≈ 82 µg/mL).
On to `C[C@@H]1Cc2c([nH]c3ccccc23)[C@@H](c2cnc(NCCNCCCF)cn2)N1CC(F)F` [Example 71, N1-(5-((1S,3R)-2-(2,2-difluoroethyl)-3-methyl-2,3,4,9-tetrahydro-1H-pyrido[3,4-b]indol-1-yl)pyrazin-2-yl)-N2-(3-fluoropropyl)ethane-1,2-diamine], for which the log distribution coefficient (logD) in “physchem” amounted to 2.3. Also, in data set [3], the “Human plasma protein binding (% free)” value was determined as 13 % free. The compound also had a half-inhibitory concentration (IC50) in data set [4] of 0.83 nM. Besides, the solubility at 24 h in data set [5] is greater than 1000 µM.
Regarding `C[C@H](COc1ccc([C@@H]2c3[nH]c4ccccc4c3C[C@@H](C)N2CC2(F)COC2)cc1)NCCCF` [Example 28, 3-fluoro-N-((R)-1-(4-((1R,3R)-2-((3-fluorooxetan-3-yl)methyl)-3-methyl-2,3,4,9-tetrahydro-1H-pyrido[3,4-b]indol-1-yl)phenoxy)propan-2-yl)propan-1-amine], in “physchem”, the logD was determined as 2.9. In addition, in data set [3], the “Human plasma protein binding (% free)” value was found to be 2.7 % free. In data set [4], the half-inhibitory concentration (IC50) stood at 11 nM and the “% downregulation” value is given as “(48%)”. This compound yielded a solubility at 24 h in data set [5] of 354 µM (≈ 171 µg/mL).
The compound `COc1cc(NCCNCCCF)ccc1[C@@H]1c2[nH]c3ccccc3c2C[C@@H](C)N1CC(F)(F)CO` [Example 59, 2,2-difluoro-3-((1R,3R)-1-(4-((2-((3-fluoropropyl)amino)ethyl)amino)-2-methoxyphenyl)-3-methyl-1,3,4,9-tetrahydro-2H-pyrido[3,4-b]indol-2-yl)propan-1-ol] registered a logD in “physchem” of 2.9. Besides, the “Human plasma protein binding (% free)” value in data set [3] stood at 2.8 % free. In data set [4], it took 0.25 nM to reach half-maximal inhibition (IC50). In addition, the solubility at 24 h in data set [5] was 853 µM (≈ 430 µg/mL).

For the origin of these results see patent publication US10149839B2, “Chemical compounds” (AstraZeneca AB, priority 2016, dated 2018).
